Results: PubChem BioAssay AID1963973 (Molecular Pharmacology Branch, DTP, NCI, 2024)

System: 883617-216-R-J1-PDC tumor spheroids, viability
Experiment: Anticancer human tumor 883617-216-R-J1-PDC patient-derived bladder carcinoma cell line growth inhibition [PI3K]
Settings: spheroids with HUVEC and MSC; for viability, T/C: stronger effect = lower value
Procedure, shortened: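 Combination activity was assessed by viability in multicellular tumor spheroids carrying HUVEC and MSC components. Agents were tested with PI3K inhibitors from a Cmax-based top dose (or 10 microM) downward in half-log increments.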

[1] = curve of first compound, second compound 0.00316 µM
[2] = curve of first compound, second compound 0.01 µM
[3] = curve of first compound, second compound 0.0316 µM
[4] = curve of first compound, second compound 0.1 µM
[5] = curve of first compound, second compound 0.316 µM
[6] = curve of first compound, second compound 1 µM
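Also: spheroids exposed to agents for 7 days before the viability read.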

Cn1ncnc1[C@H]1c2n[nH]c(=O)c3cc(F)cc(c23)N[C@@H]1c1ccc(F)cc1 + CC(Nc1ccc2c(c1)OCCn1cc(N3C(=O)OCC3C(F)F)nc1-2)C(N)=O showed an IC50 [1] greater than 0.1 µM, an IC50 [2] greater than 0.1 µM and an IC50 [3] of 0.00536 µM. It also gave an IC50 [4] of less than 0.000316 µM, an IC50 [5] of less than 0.000316 µM and an IC50 [6] of less than 0.000316 µM. For the same compound, the viability, T/C (second compound 0.00316 µM, first compound 0.000316 µM) was 84.3%, the viability, T/C (second compound 0.00316 µM, first compound 0.001 µM) was 83.1% and the viability, T/C (second compound 0.00316 µM, first compound 0.00316 µM) was 89%. For the same compound, the viability, T/C (second compound 0.00316 µM, first compound 0.01 µM) was 78.3%, the viability, T/C (second compound 0.00316 µM, first compound 0.0316 µM) was 63% and the viability, T/C (second compound 0.00316 µM, first compound 0.1 µM) was 63.2%. It also gave a viability, T/C (second compound 0.01 µM, first compound 0.000316 µM) of 83%, a viability, T/C (second compound 0.01 µM, first compound 0.001 µM) of 94.6% and a viability, T/C (second compound 0.01 µM, first compound 0.00316 µM) of 79.3%. It also gave a viability, T/C (second compound 0.01 µM, first compound 0.01 µM) of 69%, a viability, T/C (second compound 0.01 µM, first compound 0.0316 µM) of 64.9% and a viability, T/C (second compound 0.01 µM, first compound 0.1 µM) of 59.5%. The viability, T/C (second compound 0.0316 µM, first compound 0.000316 µM) was 69.6%, the viability, T/C (second compound 0.0316 µM, first compound 0.001 µM) was 79.7% and the viability, T/C (second compound 0.0316 µM, first compound 0.00316 µM) was 54.2%. It also gave a viability, T/C (second compound 0.0316 µM, first compound 0.01 µM) of 50%, a viability, T/C (second compound 0.0316 µM, first compound 0.0316 µM) of 44.2% and a viability, T/C (second compound 0.0316 µM, first compound 0.1 µM) of 40.6%. For the same compound, the viability, T/C (second compound 0.1 µM, first compound 0.000316 µM) was 43.4%, the viability, T/C (second compound 0.1 µM, first compound 0.001 µM) was 45.1% and the viability, T/C (second compound 0.1 µM, first compound 0.00316 µM) was 43.7%. It also gave a viability, T/C (second compound 0.1 µM, first compound 0.01 µM) of 38.2%, a viability, T/C (second compound 0.1 µM, first compound 0.0316 µM) of 32.1% and a viability, T/C (second compound 0.1 µM, first compound 0.1 µM) of 31.9%. The viability, T/C (second compound 0.316 µM, first compound 0.000316 µM) was 25.7%, the viability, T/C (second compound 0.316 µM, first compound 0.001 µM) was 25.3% and the viability, T/C (second compound 0.316 µM, first compound 0.00316 µM) was 25.8%. The viability, T/C (second compound 0.316 µM, first compound 0.01 µM) was 28.6%, the viability, T/C (second compound 0.316 µM, first compound 0.0316 µM) was 22.8% and the viability, T/C (second compound 0.316 µM, first compound 0.1 µM) was 19.1%. It also gave a viability, T/C (second compound 1 µM, first compound 0.000316 µM) of 18.5%, a viability, T/C (second compound 1 µM, first compound 0.001 µM) of 15.8% and a viability, T/C (second compound 1 µM, first compound 0.00316 µM) of 13%. The viability, T/C (second compound 1 µM, first compound 0.01 µM) was 14.6%, the viability, T/C (second compound 1 µM, first compound 0.0316 µM) was 13.5% and the viability, T/C (second compound 1 µM, first compound 0.1 µM) was 10.8%.

With Cn1cnc2c(F)c(Nc3ccc(Br)cc3Cl)c(C(=O)NOCCO)cc21 the viability, T/C (compound 0.00949 µM) was 73.6% [middle of 4 runs], the viability, T/C (compound 0.03 µM) was 54.3% [middle of 4 runs] and the viability, T/C (compound 0.0949 µM) was 43.7% [middle of 4 runs]. For the same compound, the viability, T/C (compound 0.3 µM) was 32.2% [middle of 4 runs], the viability, T/C (compound 0.949 µM) was 34.6% [middle of 4 runs] and the viability, T/C (compound 3 µM) was 20.2% [middle of 4 runs]. The IC50 (curve of compound) was 52.5 nM [middle of 4 runs].

Work on Cn1cnc2c(F)c(Nc3ccc(Br)cc3Cl)c(C(=O)NOCCO)cc21 + CC(Nc1ccc2c(c1)OCCn1cc(N3C(=O)OCC3C(F)F)nc1-2)C(N)=O yielded an IC50 [1] of 0.0406 µM, an IC50 [2] of 0.0349 µM and an IC50 [3] of 0.0103 µM. It also gave an IC50 [4] of 0.0134 µM, an IC50 [5] of less than 0.00949 µM and an IC50 [6] of less than 0.00949 µM. For the same compound, the viability, T/C (second compound 0.00316 µM, first compound 0.00949 µM) was 64.5%, the viability, T/C (second compound 0.00316 µM, first compound 0.03 µM) was 57.4% and the viability, T/C (second compound 0.00316 µM, first compound 0.0949 µM) was 35.1%. The viability, T/C (second compound 0.00316 µM, first compound 0.3 µM) was 35.3%, the viability, T/C (second compound 0.00316 µM, first compound 0.949 µM) was 26.5% and the viability, T/C (second compound 0.00316 µM, first compound 3 µM) was 19.6%. The viability, T/C (second compound 0.01 µM, first compound 0.00949 µM) was 62.9%, the viability, T/C (second compound 0.01 µM, first compound 0.03 µM) was 47.3% and the viability, T/C (second compound 0.01 µM, first compound 0.0949 µM) was 45.9%. The viability, T/C (second compound 0.01 µM, first compound 0.3 µM) was 30.6%, the viability, T/C (second compound 0.01 µM, first compound 0.949 µM) was 26.8% and the viability, T/C (second compound 0.01 µM, first compound 3 µM) was 19.4%. The viability, T/C (second compound 0.0316 µM, first compound 0.00949 µM) was 51.8%, the viability, T/C (second compound 0.0316 µM, first compound 0.03 µM) was 36% and the viability, T/C (second compound 0.0316 µM, first compound 0.0949 µM) was 25%. It also gave a viability, T/C (second compound 0.0316 µM, first compound 0.3 µM) of 25.2%, a viability, T/C (second compound 0.0316 µM, first compound 0.949 µM) of 20.1% and a viability, T/C (second compound 0.0316 µM, first compound 3 µM) of 14.2%. For the same compound, the viability, T/C (second compound 0.1 µM, first compound 0.00949 µM) was 61.2%, the viability, T/C (second compound 0.1 µM, first compound 0.03 µM) was 21.9% and the viability, T/C (second compound 0.1 µM, first compound 0.0949 µM) was 23.4%. It also gave a viability, T/C (second compound 0.1 µM, first compound 0.3 µM) of 18%, a viability, T/C (second compound 0.1 µM, first compound 0.949 µM) of 16.7% and a viability, T/C (second compound 0.1 µM, first compound 3 µM) of 7.35%. The viability, T/C (second compound 0.316 µM, first compound 0.00949 µM) was 22.1%, the viability, T/C (second compound 0.316 µM, first compound 0.03 µM) was 16.2% and the viability, T/C (second compound 0.316 µM, first compound 0.0949 µM) was 10.5%. It also gave a viability, T/C (second compound 0.316 µM, first compound 0.3 µM) of 11.5%, a viability, T/C (second compound 0.316 µM, first compound 0.949 µM) of 8.13% and a viability, T/C (second compound 0.316 µM, first compound 3 µM) of 4.48%. For the same compound, the viability, T/C (second compound 1 µM, first compound 0.00949 µM) was 13.3%, the viability, T/C (second compound 1 µM, first compound 0.03 µM) was 9.92% and the viability, T/C (second compound 1 µM, first compound 0.0949 µM) was 7.16%. It also gave a viability, T/C (second compound 1 µM, first compound 0.3 µM) of 7.46%, a viability, T/C (second compound 1 µM, first compound 0.949 µM) of 6.08% and a viability, T/C (second compound 1 µM, first compound 3 µM) of 3.09%.
